Species: Rattus norvegicus
Experiment: DrugMatrix - Regimen: Daily Repeat
Type: toxicity, organism-based, Sprague-Dawley
Parameters: regimen Daily Repeat, gender Male, age 6-8 weeks
Settings: in vivo, po, route oral GAVAGE, […]; for ABSOLUTE BASOPHIL / ABSOLUTE EOSINOPHIL / ABSOLUTE LYMPHOCYTE / ABSOLUTE MONOCYTE / ABSOLUTE SEGMENTED NEUTROPHIL / BASOPHIL / EOSINOPHIL / ERYTHROCYTE COUNT / HEMATOCRIT / HEMOGLOBIN / LEUKOCYTE COUNT / LYMPHOCYTE / MEAN CORPUSCULAR HEMOGLOBIN / MEAN CORPUSCULAR HEMOGLOBIN CONCENTRATION / MEAN CORPUSCULAR VOLUME / MONOCYTE / NEUTROPHIL / NUCLEATED RED BLOOD CELLS / PLATELET COUNT: tissue Blood; for ALANINE AMINOTRANSFERASE / ALBUMIN / ALKALINE PHOSPHATASE / ASPARTATE AMINOTRANSFERASE / BLOOD UREA NITROGEN / CARBON DIOXIDE / CHLORIDE / CHOLESTEROL / CREATINE PHOSPHOKINASE / CREATININE / GLUCOSE / LACTATE DEHYDROGENASE / LIPASE / PHOSPHORUS / POTASSIUM / SODIUM / TOTAL BILIRUBIN / TOTAL PROTEIN / URIC ACID: tissue Plasma
[1] = 30 mg/kg, 120 h, dose level Low, time 5 day
[2] = 2500 mg/kg, 72 h, dose level High, time 3 day
[3] = 2500 mg/kg, 120 h, dose level High, time 5 day

In the case of COC1=CC(=O)C[C@@H](C)[C@]12Oc1c(Cl)c(OC)cc(OC)c1C2=O [GRISEOFULVIN], the “ABSOLUTE BASOPHIL” value [1] is reported as 0 CELLS/uL, the “ABSOLUTE EOSINOPHIL” value [1] is reported as 0 CELLS/uL and the “ABSOLUTE LYMPHOCYTE” value [1] is reported as 12913.33 CELLS/uL. For the same molecule, the “ABSOLUTE MONOCYTE” value [1] was 48.67 CELLS/uL, the “ABSOLUTE SEGMENTED NEUTROPHIL” value [1] was 1938 CELLS/uL and the BASOPHIL [1] was 0%. The EOSINOPHIL [1] was 0%, the “ERYTHROCYTE COUNT” value [1] was 5.4 x10E6/uL and the HEMATOCRIT [1] was 33.57%. The HEMOGLOBIN [1] was 12.93 G/DL, the “LEUKOCYTE COUNT” value [1] was 14.9 x10E3/uL and the LYMPHOCYTE [1] was 86.67%. For the same molecule, the “MEAN CORPUSCULAR HEMOGLOBIN” value [1] was 23.93 pg, the “MEAN CORPUSCULAR HEMOGLOBIN CONCENTRATION” value [1] was 38.5 G/DL and the “MEAN CORPUSCULAR VOLUME” value [1] was 62.1 fL. For the same molecule, the MONOCYTE [1] was 0.33%, the NEUTROPHIL [1] was 13% and the “NUCLEATED RED BLOOD CELLS” value [1] was 0 /100WBC. The “PLATELET COUNT” value [1] was 1179 x10E3/uL, the “ALANINE AMINOTRANSFERASE” value [1] was 63.67 u/L and the ALBUMIN [1] was 3.87 G/DL. The “ALKALINE PHOSPHATASE” value [1] was 399.67 u/L, the “ASPARTATE AMINOTRANSFERASE” value [1] was 90.33 u/L and the “BLOOD UREA NITROGEN” value [1] was 15.33 mg/dL. For the same molecule, the “CARBON DIOXIDE” value [1] was 28.33 mmol/L, the CHLORIDE [1] was 101.67 MEQ/L and the CHOLESTEROL [1] was 66.33 mg/dL. For the same molecule, the “CREATINE PHOSPHOKINASE” value [1] was 384.67 u/L, the CREATININE [1] was 0.2 mg/dL and the GLUCOSE [1] was 154 mg/dL. For the same molecule, the “LACTATE DEHYDROGENASE” value [1] was 329.33 u/L, the LIPASE [1] was 10 u/L and the PHOSPHORUS [1] was 11.63 mg/dL. For the same molecule, the POTASSIUM [1] was 6.32 MEQ/L, the SODIUM [1] was 143 MEQ/L and the “TOTAL BILIRUBIN” value [1] was 0.2 mg/dL. For the same molecule, the “TOTAL PROTEIN” value [1] was 5.5 G/DL, the “URIC ACID” value [1] was 1.43 mg/dL and the “ABSOLUTE BASOPHIL” value [2] was 0 CELLS/uL. For the same molecule, the “ABSOLUTE EOSINOPHIL” value [2] was 109.33 CELLS/uL, the “ABSOLUTE LYMPHOCYTE” value [2] was 15660.67 CELLS/uL and the “ABSOLUTE MONOCYTE” value [2] was 63 CELLS/uL. For the same molecule, the “ABSOLUTE SEGMENTED NEUTROPHIL” value [2] was 2167 CELLS/uL, the BASOPHIL [2] was 0% and the EOSINOPHIL [2] was 0.67%. For the same molecule, the “ERYTHROCYTE COUNT” value [2] was 5.22 x10E6/uL, the HEMATOCRIT [2] was 32.37% and the HEMOGLOBIN [2] was 12.83 G/DL. For the same molecule, the “LEUKOCYTE COUNT” value [2] was 18 x10E3/uL, the LYMPHOCYTE [2] was 87% and the “MEAN CORPUSCULAR HEMOGLOBIN” value [2] was 24.6 pg. The “MEAN CORPUSCULAR HEMOGLOBIN CONCENTRATION” value [2] was 39.67 G/DL, the “MEAN CORPUSCULAR VOLUME” value [2] was 62.07 fL and the MONOCYTE [2] was 0.33%. The NEUTROPHIL [2] was 12%, the “NUCLEATED RED BLOOD CELLS” value [2] was 0 /100WBC and the “PLATELET COUNT” value [2] was 1162 x10E3/uL. For the same molecule, the “ALANINE AMINOTRANSFERASE” value [2] was 57 u/L, the ALBUMIN [2] was 3.87 G/DL and the “ALKALINE PHOSPHATASE” value [2] was 293.67 u/L. For the same molecule, the “ASPARTATE AMINOTRANSFERASE” value [2] was 75.67 u/L, the “BLOOD UREA NITROGEN” value [2] was 14.33 mg/dL and the “CARBON DIOXIDE” value [2] was 33.67 mmol/L. For the same molecule, the CHLORIDE [2] was 98.33 MEQ/L, the CHOLESTEROL [2] was 107.67 mg/dL and the “CREATINE PHOSPHOKINASE” value [2] was 199 u/L. For the same molecule, the CREATININE [2] was 0.17 mg/dL, the GLUCOSE [2] was 144 mg/dL and the “LACTATE DEHYDROGENASE” value [2] was 120 u/L. The LIPASE [2] was 11.67 u/L, the PHOSPHORUS [2] was 12.17 mg/dL and the POTASSIUM [2] was 6.74 MEQ/L. The SODIUM [2] was 142.47 MEQ/L, the “TOTAL BILIRUBIN” value [2] was 0.2 mg/dL and the “TOTAL PROTEIN” value [2] was 5.83 G/DL. The “URIC ACID” value [2] was 1.47 mg/dL, the “ABSOLUTE BASOPHIL” value [3] was 0 CELLS/uL and the “ABSOLUTE EOSINOPHIL” value [3] was 34 CELLS/uL. The “ABSOLUTE LYMPHOCYTE” value [3] was 11701.67 CELLS/uL, the “ABSOLUTE MONOCYTE” value [3] was 201.67 CELLS/uL and the “ABSOLUTE SEGMENTED NEUTROPHIL” value [3] was 562.67 CELLS/uL. For the same molecule, the BASOPHIL [3] was 0%, the EOSINOPHIL [3] was 0.33% and the “ERYTHROCYTE COUNT” value [3] was 5.46 x10E6/uL. The HEMATOCRIT [3] was 34.03%, the HEMOGLOBIN [3] was 13.2 G/DL and the “LEUKOCYTE COUNT” value [3] was 12.5 x10E3/uL. The LYMPHOCYTE [3] was 93.67%, the “MEAN CORPUSCULAR HEMOGLOBIN” value [3] was 24.23 pg and the “MEAN CORPUSCULAR HEMOGLOBIN CONCENTRATION” value [3] was 38.8 G/DL. The “MEAN CORPUSCULAR VOLUME” value [3] was 62.4 fL, the MONOCYTE [3] was 1.67% and the NEUTROPHIL [3] was 4.33%. The “NUCLEATED RED BLOOD CELLS” value [3] was 0.33 /100WBC, the “PLATELET COUNT” value [3] was 1293.67 x10E3/uL and the “ALANINE AMINOTRANSFERASE” value [3] was 49.67 u/L. For the same molecule, the ALBUMIN [3] was 4.17 G/DL, the “ALKALINE PHOSPHATASE” value [3] was 316.33 u/L and the “ASPARTATE AMINOTRANSFERASE” value [3] was 89.33 u/L. For the same molecule, the “BLOOD UREA NITROGEN” value [3] was 17.67 mg/dL, the “CARBON DIOXIDE” value [3] was 24 mmol/L and the CHLORIDE [3] was 109 MEQ/L. For the same molecule, the CHOLESTEROL [3] was 95.67 mg/dL, the “CREATINE PHOSPHOKINASE” value [3] was 362.67 u/L and the CREATININE [3] was 0.28 mg/dL. The GLUCOSE [3] was 152.67 mg/dL, the “LACTATE DEHYDROGENASE” value [3] was 489 u/L and the LIPASE [3] was 11.33 u/L. It also gave a PHOSPHORUS [3] of 11.23 mg/dL, a POTASSIUM [3] of 6.51 MEQ/L and an SODIUM [3] of 150.77 MEQ/L. The “TOTAL BILIRUBIN” value [3] was 0.13 mg/dL, the “TOTAL PROTEIN” value [3] was 6.2 G/DL and the “URIC ACID” value [3] was 1.83 mg/dL.
